Source: ChEMBL document CHEMBL4627397 (J Med Chem, 2020)

Tests used:
[1] = in vitro; settings: human, liver microsomes
[2] = physchem; settings: octanol/water, pH 7.4
Description: Octanol/water partition coefficient, log D of compound at pH 7.4 by shake-flask method

[3] = in vitro; settings: human, hepatocytes
Description: Intrinsic clearance in human hepatocytes at 0.2 nmol assessed per million cells up to 240 mins in presence of NADPH by LC-MS/MS analysis

[4] = in vitro; settings: dog, MDCK
Description: Apparent permeability in RRCK cells

Compound | microsomal CLint at 1 h, 10 µM [1] [µL/min/mg] | logD [2] | hepatocyte CLint at 4 h [3] [µL/min/1e6 cells] | Papp [4] [×10⁻⁶ cm/s]
CCOC(=O)N1CCC(=C2c3ccc(Cl)cc3C(O)Cc3cccnc32)CC1 (configuration not stated) | 157 | 3.2 | 40 | 26.2
CCOC(=O)N1CCC(=C2c3ccc(Cl)cc3CC(F)c3cccnc32)CC1 (configuration not stated) | 120 | 4.5 | 32 | 13
OC1Cc2cc(Cl)ccc2C(=C2CCNCC2)c2ncccc21 (configuration not stated) | – | 1.1 | 3.14 | 78.4
CCOC(=O)N1C=C/C(=C2\c3ccc(Cl)cc3CCc3cc(O)cnc32)CC1 | 66 | 3.1 | 67 | –
CCOC(=O)N1CCC2(CC1)OC21c2ccc(Cl)cc2CCc2cccnc21 (configuration not stated) | 89 | 2.9 | 26.2 | 17.9
CCOC(=O)N1C=C/C(=C2\c3ccc(Cl)cc3CCc3cccnc32)CC1 | 68 | 4.3 | – | 40
Clc1ccc2c(c1)CCc1cccnc1C2=C1CCNCC1 [DESLORATADINE] | – | 1.3 | – | 2.8
CCOC(=O)N1CCC(=C2c3ccc(Cl)cc3CCc3ccc[n+]([O-])c32)CC1 | 48 | 2.8 | 17.8 | 26.8
CCOC(=O)N1CCC(=C2c3ccc(Cl)cc3CCc3c(CO)ccnc32)CC1 | 283 | 2.6 | 58.6 | 16.2
CCOC(=O)N1C=C/C(=C2/c3ccc(Cl)cc3CCc3cc(O)cnc32)CC1 | 61 | 3.9 | 62 | –
CCOC(=O)N1CCC(=C2c3ccc(Cl)cc3CCc3cc(O)cnc32)CC1 | 132 | 3.1 | 96 | 11
CCOC(=O)N1CCC(=C2c3ccc(Cl)cc3CC(O)c3cccnc32)CC1 (configuration not stated) | 132 | 3.3 | 61.5 | 23.7
CCOC(=O)N1C(O)CC(=C2c3ccc(Cl)cc3CCc3cccnc32)CC1O (configuration not stated) | 21 | 2.3 | 14 | 19.8
CCOC(=O)N1CC/C(=C2/c3ccc(Cl)cc3CCc3cccnc32)C(O)C1 (configuration not stated) | 51 | 3.1 | 19 | 22
CCOC(=O)N1CCC(=C2c3ccc(Cl)cc3CCc3ccc[n+](C)c32)CC1 | 23 | 0.3 | 6 | 0.2
CCOC(=O)N1C=C/C(=C2\c3ccc(Cl)cc3CC(O)c3cccnc32)CC1 (configuration not stated) | – | 3.4 | 82 | 78
CCOC(=O)N1CCC(=C2c3ccc(Cl)cc3CCc3ccc(C(F)F)nc32)CC1 | 108 | 4.6 | 48.7 | 7.7
CCOC(=O)N1CCC(=C2c3ccc(Cl)cc3C=Cc3cccnc32)CC1 | – | 2.6 | 9 | 98
CCOC(=O)N1C=C/C(=C2/c3ccc(Cl)cc3CCc3cccnc32)CC1 | – | 3.6 | – | 53
OC1Cc2cccnc2C(=C2CCNCC2)c2ccc(Cl)cc21 (configuration not stated) | – | 0.94 | < 1.75 | 79.9
CCOC(=O)N1CC(O)C(=C2c3ccc(Cl)cc3CCc3cccnc32)C(O)C1 (configuration not stated) | 35 | 2.8 | 18 | 23
CCOC(=O)N1CCC2(CC1)OC21c2ccc(Cl)cc2CCc2ccc[n+]([O-])c21 (configuration not stated) | < 7 | 2.1 | 4.6 | 15.2
